Assay results: PubChem BioAssay (NCI)
“And” between values parts separate entries of the source, which are not always exact repeats. Equal values may be shown once.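 Growth conditions: 96-well plates. Treatment: test compound, 48 hours, 5 concentrations. Analysis: linear interpolation between bracketing concentrations; unreached endpoints set to highest concentration. GI50 marks 50% less growth. TGI denotes the concentration required for complete inhibition of growth.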

Legend:
Test in all cases: NCI anticancer screen, dose series, 48 h
HOP-62 NSCLC = test system: HOP-62 NSCLC
HOP-92 NSCLC = test system: HOP-92 NSCLC
HT29 colon = test system: HT29 colon
IGROV1 ovarian = test system: IGROV1 ovarian
LOX IMVI melanoma = test system: LOX IMVI melanoma
SF-295 CNS = test system: SF-295 CNS
SNB-75 CNS = test system: SNB-75 CNS
UACC-62 melanoma = test system: UACC-62 melanoma
HCC-2998 colon = test system: HCC-2998 colon
UO-31 renal = test system: UO-31 renal

SMILES | GI50 (HOP-62 NSCLC) | TGI (HOP-62 NSCLC) [µM] | GI50 (HOP-92 NSCLC) [µM] | TGI (HOP-92 NSCLC) [µM] | GI50 (HT29 colon) | TGI (HT29 colon) [µM] | GI50 (IGROV1 ovarian) [µM] | TGI (IGROV1 ovarian) [µM] | GI50 (LOX IMVI melanoma) [µM] | TGI (LOX IMVI melanoma) [µM] | GI50 (SF-295 CNS) [µM] | TGI (SF-295 CNS) [µM] | GI50 (SNB-75 CNS) [µM] | TGI (SNB-75 CNS) [µM] | GI50 (UACC-62 melanoma) [µM] | TGI (UACC-62 melanoma) [µM] | TGI (HCC-2998 colon) [µM] | TGI (UO-31 renal) [µM] | GI50 (HCC-2998 colon) [µM] | GI50 (UO-31 renal) [µM]
Clc1ccc(C2=Nn3c(nnc3-c3cc(Cl)cc(Cl)c3Cl)SC2)cc1 | 14.5 µM | 32.5 | 19.6 | 65 | 9.26 µM | > 100 | 6.8 | 24.7 | 27.1 | > 100 | 11 | 29.3 | 14.8 | 34.2 | 21.6 | 70.9 |  |  |  | 
COc1cc2c(cc1OC)C(OC)N(C)c1c-2ccc2cc3c(cc12)OCO3 (configuration not stated) |  | 7.4 |  | 5.76 |  | 7.07 |  | 3.02 |  | > 32.8 |  | > 75 |  | 5.53 |  | 3.08 | 5.73 | 74.7 |  | 
COC(=O)Nc1nc2ccc(C(=O)c3ccc(N(C)C4COC4)cc3)cc2[nH]1 | 0.471 µM | > 100 | 0.62 | 45.9 | 0.34 µM | > 100 | 0.905 | > 100 | 0.761 | > 100 | 0.28 | > 100 | 0.227 | > 100 | 0.38 | > 100 | > 100 | > 100 | 0.716 | 0.883
CS(=O)(=O)CCNCc1ccc(-c2ccc3ncnc(Nc4ccc(OCc5cccc(F)c5)c(C(F)(F)F)c4)c3c2)o1 | 4.03 µM | 8.27 | 0.847 | 6.34 | 4.54 µM | 8.92 | 4.56 | 13.5 | 3.96 | 8.13 | 4.4 | 9.43 | 3.52 | 7.77 | 3.94 | 7.48 | 8.29 | 8.42 | 4.4 | 3.36
CN1C(=O)[C@@H](NC(=O)[C@H](CCC(F)(F)F)[C@H](CCC(F)(F)F)C(N)=O)N=C(c2ccccc2)c2ccccc21 | > 100 µM | > 100 | 59.1 | > 100 | > 100 µM | > 100 | > 100 | > 100 | > 100 | > 100 | 58.4 | > 100 | 32.6 | > 100 | 35.7 | > 100 | > 100 | > 100 | > 100 | 49
CCOC(=O)C(=O)Nc1ccc(Cl)cc1C |  | > 100 |  | > 100 |  | > 100 |  | > 100 |  | > 100 |  | > 100 |  | > 100 |  | > 100 | > 100 | > 100 |  | 
COc1cc(O)c2c(c1)C(=O)C=C(Cl)C2=O |  |  |  | > 100 |  | > 100 |  | > 100 |  | > 100 |  | > 100 |  | > 100 |  | > 100 | > 100 | > 100 |  | 
CN1C(c2ccccc2)CS(=O)(=O)CS1(=O)=O (configuration not stated) |  | > 100 |  |  |  | > 100 |  | > 100 |  | > 100 |  | > 100 |  | > 100 |  | > 100 | > 100 | > 100 |  | 
COC1=CC23CCCN2CCc2cc4c(cc2C3C1O)OCO4 (configuration not stated) |  |  |  | > 100 |  | > 100 |  | > 100 |  | > 100 |  | > 100 |  | > 100 |  | > 100 | > 100 | > 100 |  | 
Cc1nc(CN2CCCCC2)c(O)c(=O)[nH]1 |  | > 100 |  | > 100 |  | > 100 |  | > 100 |  | > 100 |  | > 100 |  | > 100 |  | > 100 |  | > 100 |  | 
O=c1cc(-c2ccccc2)oc2cc(O)cc(O)c12 |  | > 100 |  | 38.7 |  | > 100 |  |  |  | 46.8 |  | 37.6 |  | 31.2 |  | 76.5 | 38.6 | 43.5 |  | 
CC(=O)O[C@@H]1[C@@H](O)C2=C3[C@]4(C)[C@@H]1C(C)(C)C(=O)C[C@@H]4[C@]3(O)[C@H](OC(C)=O)[C@@]1(C[C@@H]1C)C2=O |  |  |  | 36.6 |  |  |  | 30.9 |  | 30.5 |  | 42.1 |  | 75.4 |  | 33.2 | 32.7 | 33.9 |  | 
CC#C/C(=N\OC[C@H]1COCCN1)c1ccc2ncnc(Nc3ccc(OCc4cccc(F)c4)c(Cl)c3)c2c1 | 3 µM | 11.3 | 1.14 | 2.48 | 1.62 µM | 3.09 |  |  | 1.75 | 3.29 | 1.72 | 3.26 | 1.46 | 2.82 | 1.68 | 3.11 | 3.41 | 2.41 | 1.84 | 1.13
CN(/N=C/c1cccc2cccnc12)c1ccc([N+](=O)[O-])cc1 |  | > 100 |  | > 100 |  | > 100 |  | > 100 |  | > 100 |  | > 100 |  | > 100 |  | > 100 | > 100 |  |  | 
COc1cc(Nc2ncc(F)c(Nc3ccc4c(n3)NC(=O)C(C)(C)O4)n2)cc(OC)c1OC | 1.38 µM and 4.74 µM | > 100 | 0.302 | 4.85 | 1.32 µM and 2.01 µM | > 100 | 0.43 | > 10 | 1.57 | > 10 | 4.4 | > 10 | 0.385 | > 10 |  |  | > 100 | > 10 | > 100 | 0.679
COc1ccc(C[C@@H]2NC[C@@H](O)[C@@H]2OC(C)=O)cc1 | 19.3 µM |  |  | 0.0448 |  |  | 0.367 | 8.14 | 3.46 |  | 6.7 | 90 |  | 0.0692 | 3.19 |  |  |  | 2.19 | 44.6
O=[N+]([O-])/C=C/c1cc2ccccc2[nH]1 |  | 32.4 |  | 43.5 |  | 35.5 |  | 26.3 |  | 29.5 |  | 43.9 |  | 28.6 |  | 33.7 |  | 31.9 |  | 
Cc1cc(Nc2c3ccccc3nc3ccccc23)ccc1NS(C)(=O)=O | 4.61 µM | 17.9 | 0.758 | 5.69 | 3.38 µM | 12.8 | 3.07 | 11 | 3.13 | 13.5 | 4.26 | 23.4 | 5.11 | 19.9 |  |  | 20.7 | 8.76 | 5.94 | 1.9
